Measurements from patent publication US11840497B2, “4-(p-quinonyl)-2-hydroxybutanamide derivatives for treatment of mitochondrial diseases” (PTC Therapeutics, Inc., priority 2007, dated 2023).
Where two headings read alike, the source gives them in different places.

What was measured:
Assay type in all cases: cell-based
[1] = system: Human dermal fibroblasts from Friedreich's Ataxia patients; assay: Rescue of BSO-stressed FRDA fibroblasts (Example A); settings: FRDA fibroblasts GM04078, 1 mM BSO
Procedure: Test samples, 4 reference compounds (idebenone, decylubiquinone, Trolox and α-tocopherol acetate), and solvent controls were tested for their ability to rescue FRDA fibroblasts stressed by addition of L-buthionine (S,R)-sulfoximine (BSO), as described in Jauslin et al., Hum. Mol. Genet. […] Mol. Genet. […] This specific BSO-mediated cell death can be prevented by administration of antioxidants or molecules involved in the antioxidant pathway, such as α-tocopherol, selenium, or small molecule glutathione peroxidase mimetics. However, antioxidants differ in their potency, i.e. the concentration at which they are able to rescue BSO-stressed FRDA fibroblasts.
Fetal Calf Serum was obtained from PAA Laboratories. Basic fibroblast growth factor and epidermal growth factor were purchased from PeproTech. Penicillin-streptomycin-glutamine mix, L-buthionine (S,R)-sulfoximine, (+)-α-tocopherol acetate, decylubiquinone, and insulin from bovine pancreas were purchased from Sigma. Trolox (6-Hydroxy-2,5,7,8-tetramethylchroman-2-carboxylic acid) was obtained from Fluka. Idebenone was obtained from Chemo Iberica. Calcein AM was purchased from Molecular Probes. Cell culture medium was made by combining 125 ml M199 EBS, 50 ml Fetal Calf Serum, 100 U/ml penicillin, 100 μg/ml streptomycin, 2 mM glutamine, 10 μg/ml insulin, 10 ng/ml EGF, and 10 ng/ml bFGF; MEM EBS was added to make the volume up to 500 ml. […] During the course of the experiments, this solution was stored at +4° C. The cells were obtained from the Coriell Cell Repositories (Camden, NJ; repository number GM04078) and grown in 10 cm tissue culture plates. Every third day, they were split at a 1:3 ratio.
The test samples were supplied in 1.5 ml glass vials. […] Once dissolved, they were stored at −20° C. Reference antioxidants (idebenone, decylubiquinone, α-tocopherol acetate and trolox) were dissolved in DMSO.
Test samples were screened according to the following protocol: A culture with FRDA fibroblasts was started from a 1 ml vial with approximately 500,000 cells stored in liquid nitrogen. […] Once confluent, fibroblasts were harvested. […] The remaining cells were distributed in 10 cm cell culture plates (500,000 cells/plate) for propagation. The plates were incubated overnight at 37° C. in a atmosphere with 95% humidity and 5% CO2 to allow attachment of the cells to the culture plate.
MTP medium (243 μl) was added to a well of the microtiter plate. […] Serial dilutions from the master solution were made. The period between the single dilution steps was kept as short as possible (generally less than 1 second).
Plates were kept overnight in the cell culture incubator. The next day, 10 μl of a 10 mM BSO solution were added to the wells, resulting in a 1 mM final BSO concentration. Forty-eight hours later, three plates were examined under a phase-contrast microscope to verify that the cells in the 0% control (wells E1-H1) were clearly dead. The medium from all plates was discarded, and the remaining liquid was removed by gently tapping the plate inversed onto a paper towel.
The plates were incubated for 50-70 minutes at room temperature. After that time the PBS was discarded, the plate gently tapped on a paper towel and fluorescence (excitation/emission wavelengths of 485 nm and 525 nm, respectively) was read on a Gemini fluorescence reader. Data was imported into Microsoft Excel (EXCEL is a registered trademark of Microsoft Corporation for a spreadsheet program) and used to calculate the EC50 concentration for each compound.
The compounds were tested three times, i.e., the experiment was performed three times, the passage number of the cells increasing by one with every repetition.
The viability of non-BSO treated fibroblasts was set as 100%, and the viability of the BSO- and compound-treated cells was calculated as relative to this value.

[2] = system: human dermal fibroblasts from Huntington's patients; assay: Rescue of BSO-stressed fibroblasts from Huntington's patients (Example B); settings: Fibroblast, Huntington's fibroblasts GM 04281, screen as Example A, read-out: protection against Hungtington's, EC50
Procedure: The compounds were tested for their ability to rescue human dermal fibroblasts from Huntington's patients from oxidative stress.

[3] = system: human dermal fibroblasts from LHON patients; assay: Rescue of BSO-stressed fibroblasts from LHON patients (Example C); settings: Fibroblast, LHON fibroblasts GM03858, screen as Example A, read-out: protection against LHON, EC50
Procedure: The compounds were tested for their ability to rescue human dermal fibroblasts from LHON patients from oxidative stress.

[4] = read-out: protection against FRDA, EC50
[5] = Calcein AM viability, average of three values, read-out: EC50 Average
[6] = Calcein AM viability, experiment 1 of 3, read-out: EC50 Value 1
[7] = Calcein AM viability, experiment 2 of 3, read-out: EC50 Value 2
[8] = Calcein AM viability, experiment 3 of 3, read-out: EC50 Value 3

Row | SMILES | EC50 [1, 4] | EC50 [2] | EC50 [3] | further results
1 | CC1=C(C)C(=O)C(CCC(C)(O)C(=O)NCc2cccc(F)c2)=C(C)C1=O (centres unmarked) [N-(3-fluorobenzyl)-2-hydroxy-2-methyl-4-(2,4,5-trimethyl-3,6-dioxocyclohexa-1,4-dienyl)butanamide] | < 100 nM | < 100 nM | < 100 nM | 
2 | CC1=C(C)C(=O)C(CCC(C)(O)C(=O)N2CCCCC2)=C(C)C1=O (centres unmarked) [Example 42, 2-(3-Hydroxy-3-methyl-4-oxo-4-(piperidin-1-yl)butyl)-3,5,6-trimethylcyclohexa-2,5-diene-1,4-dione] |  |  | < 100 nM | 
3 | CC(=O)N1CCN(C(=O)[C@](C)(O)CCC2=C(C)C(=O)C(C)=C(C)C2=O)CC1 [(R)-2-(4-(4-acetylpiperazin-1-yl)-3-hydroxy-3-methyl-4-oxobutyl)-3,5,6-trimethylcyclohexa-2,5-diene-1,4-dione] | < 100 nM | < 100 nM | < 100 nM | 
4 | CC1=C(C)C(=O)C(CCC(C)(O)C(=O)N2CCN(C)CC2)=C(C)C1=O (centres unmarked) [Example 14, 2-(3-Hydroxy-3-methyl-4-(4-methylpiperazin-1-yl)-4-oxobutyl)-3,5,6-trimethylcyclohexa-2,5-diene-1,4-dione] | < 100 nM | < 100 nM |  | 
5 | CC1=C(C)C(=O)C(CCC(C)(O)C(=O)Nc2ccc(Cl)cc2)=C(C)C1=O (centres unmarked) [N-(4-chlorophenyl)-2-hydroxy-2-methyl-4-(2,4,5-trimethyl-3,6-dioxocyclohexa-1,4-dienyl)butanamide] | < 100 nM | < 100 nM | < 100 nM | 
6 | CC1=C(C)C(=O)C(CCC(C)(O)C(=O)NCc2ccccc2F)=C(C)C1=O (centres unmarked) [N-(2-fluorobenzyl)-2-hydroxy-2-methyl-4-(2,4,5-trimethyl-3,6-dioxocyclohexa-1,4-dienyl)butanamide] | < 100 nM | < 100 nM | < 100 nM | 
7 | CC(=O)N1CCN(C(=O)[C@@](C)(O)CCC2=C(C)C(=O)C(C)=C(C)C2=O)CC1 [(S)-2-(4-(4-acetylpiperazin-1-yl)-3-hydroxy-3-methyl-4-oxobutyl)-3,5,6-trimethylcyclohexa-2,5-diene-1,4-dione] | < 100 nM | < 100 nM | < 100 nM | 
8 | CC1=C(C)C(=O)C(CCC(C)(O)C(=O)NCCCN2CCOCC2)=C(C)C1=O (centres unmarked) [Example 33, 2-Hydroxy-2-methyl-N-(3-morpholinopropyl)-4-(2,4,5-trimethyl-3,6-dioxocyclohexa-1,4-dienyl)butanamide] | < 100 nM | < 100 nM |  | 
9 | CC1=C(C)C(=O)C(CCC(C)(O)C(=O)NCc2ccncc2)=C(C)C1=O (centres unmarked) [2-hydroxy-2-methyl-N-(pyridin-4-ylmethyl)-4-(2,4,5-trimethyl-3,6-dioxocyclohexa-1,4-dienyl)butanamide] |  |  | < 100 nM | 
10 | CC1=C(C)C(=O)C(CCC(C)(O)C(=O)NCCc2cccc(F)c2)=C(C)C1=O (centres unmarked) [N-(3-fluorophenethyl)-2-hydroxy-2-methyl-4-(2,4,5-trimethyl-3,6-dioxocyclohexa-1,4-dienyl)butanamide] | < 100 nM |  | < 100 nM | 
11 | CC1=C(C)C(=O)C(CC[C@@](C)(O)C(=O)N2CCC(O)CC2)=C(C)C1=O [(R)-2-(3-hydroxy-4-(4-hydroxypiperidin-1-yl)-3-methyl-4-oxobutyl)-3,5,6-trimethylcyclohexa-2,5-diene-1,4-dione] | < 100 nM |  | < 100 nM | 
12 | CC1=C(C)C(=O)C(CCC(C)(O)C(=O)NCCc2ccccc2F)=C(C)C1=O (centres unmarked) [N-(2-fluorophenethyl)-2-hydroxy-2-methyl-4-(2,4,5-trimethyl-3,6-dioxocyclohexa-1,4-dienyl)butanamide] | < 100 nM |  | < 100 nM | 
13 | CC1=C(C)C(=O)C(CCC(C)(O)C(=O)N(CCO)CCO)=C(C)C1=O (centres unmarked) [Example 35, 2-Hydroxy-N,N-bis(2-hydroxyethyl)-2-methyl-4-(2,4,5-trimethyl-3,6-dioxocyclohexa-1,4-dienyl)butanamide] | < 100 nM | < 100 nM |  | 
14 | CC1=C(C)C(=O)C(CCC(C)(O)C(=O)NCC(C)O)=C(C)C1=O (centres unmarked) [Example 30, 2-Hydroxy-N-(2-hydroxypropyl)-2-methyl-4-(2,4,5-trimethyl-3,6-dioxocyclohexa-1,4-dienyl)butanamide] | < 100 nM |  | < 100 nM | 
15 | CC1=C(C)C(=O)C(CCC(C)(O)C(=O)N2CCN(C(=O)c3ccccc3)CC2)=C(C)C1=O (centres unmarked) [2-(4-(4-benzoylpiperazin-1-yl)-3-hydroxy-3-methyl-4-oxobutyl)-3,5,6-trimethylcyclohexa-2,5-diene-1,4-dione] |  |  | < 100 nM | 
16 | CC1=C(C)C(=O)C(CCC(C)(O)C(=O)N2CCCCCC2)=C(C)C1=O (centres unmarked) [2-(4-(azepan-1-yl)-3-hydroxy-3-methyl-4-oxobutyl)-3,5,6-trimethylcyclohexa-2,5-diene-1,4-dione] |  |  | < 100 nM | 
17 | CC1=C(C)C(=O)C(CCC(C)(O)C(=O)NCCCS(C)(=O)=O)=C(C)C1=O (centres unmarked) [2-hydroxy-2-methyl-N-(3-(methylsulfonyl)propyl)-4-(2,4,5-trimethyl-3,6-dioxocyclohexa-1,4-dienyl)butanamide] |  |  | < 100 nM | 
18 | CC1=C(C)C(=O)C(CC[C@](C)(O)C(=O)N2CCC(O)CC2)=C(C)C1=O [(S)-2-(3-hydroxy-4-(4-hydroxypiperidin-1-yl)-3-methyl-4-oxobutyl)-3,5,6-trimethylcyclohexa-2,5-diene-1,4-dione] | < 100 nM |  | < 100 nM | 
19 | CCCCCCCCCCC1=C(C)C(=O)C(OC)=C(OC)C1=O [decylubiquinone, reference compound] |  |  |  | EC50 [1, 5]: 38 nM; EC50 [1, 6]: 50 nM; EC50 [1, 7]: 35 nM; EC50 [1, 8]: 30 nM
20 | COC1=C(OC)C(=O)C(CCCCCCCCCCO)=C(C)C1=O [Idebenone, reference compound] |  |  |  | EC50 [1, 5]: 1200 nM; EC50 [1, 6]: 1500 nM; EC50 [1, 7]: 1000 nM; EC50 [1, 8]: 1000 nM
21 | COc1ccc(NC(=O)C(C)(O)CCC2=C(C)C(=O)C(C)=C(C)C2=O)cc1 (centres unmarked) [2-hydroxy-N-(4-methoxyphenyl)-2-methyl-4-(2,4,5-trimethyl-3,6-dioxocyclohexa-1,4-dienyl)butanamide] | < 100 nM | < 100 nM |  | 
22 | CC1=C(C)C(=O)C(CCC(C)(O)C(=O)NCCCN2CCCC2=O)=C(C)C1=O (centres unmarked) [Example 29, 2-Hydroxy-2-methyl-N-(3-(2-oxopyrrolidin-1-yl)-propyl)-4-(2,4,5-trimethyl-3,6-dioxocyclohexa-1,4-dienyl)butanamide] |  | < 100 nM |  | 
23 | CC1=C(C)C(=O)C(CCC(C)(O)C(=O)NCCC(C)C)=C(C)C1=O (centres unmarked) [Example 7, 2-Hydroxy-N-isopentyl-2-methyl-4-(2,4,5-trimethyl-3,6-dioxocyclohexa-1,4-dienyl)butanamide] |  |  | < 100 nM | 
24 | Cc1c(C)c2c(c(C)c1O)CCC(C)(C(=O)O)O2 (centres unmarked) [Trolox, 6-Hydroxy-2,5,7,8-tetramethylchroman-2-carboxylic acid, reference compound] |  |  |  | EC50 [1, 5]: 8700 nM; EC50 [1, 6]: 9000 nM; EC50 [1, 7]: 9000 nM; EC50 [1, 8]: 8000 nM
25 | CC(=O)Oc1c(C)c(C)c2c(c1C)CCC(C)(CCC[C@H](C)CCC[C@H](C)CCCC(C)C)O2 (stereo partly drawn) [alpha-tocopherol acetate, (+)-α-tocopherol acetate, reference compound] |  |  |  | EC50 [1, 5]: 300 nM; EC50 [1, 6]: 400 nM; EC50 [1, 7]: 150 nM; EC50 [1, 8]: 350 nM
